{"source": "patent US9340590B2", "about": "(priority 2011, dated 2016)", "assay_in_all_cases": "cell-based", "key": {"[1]": {"target": "hNav1.3 (Homo sapiens, UniProt Q9NY46)", "sequence (Q9NY46 whole entry, looked up)": "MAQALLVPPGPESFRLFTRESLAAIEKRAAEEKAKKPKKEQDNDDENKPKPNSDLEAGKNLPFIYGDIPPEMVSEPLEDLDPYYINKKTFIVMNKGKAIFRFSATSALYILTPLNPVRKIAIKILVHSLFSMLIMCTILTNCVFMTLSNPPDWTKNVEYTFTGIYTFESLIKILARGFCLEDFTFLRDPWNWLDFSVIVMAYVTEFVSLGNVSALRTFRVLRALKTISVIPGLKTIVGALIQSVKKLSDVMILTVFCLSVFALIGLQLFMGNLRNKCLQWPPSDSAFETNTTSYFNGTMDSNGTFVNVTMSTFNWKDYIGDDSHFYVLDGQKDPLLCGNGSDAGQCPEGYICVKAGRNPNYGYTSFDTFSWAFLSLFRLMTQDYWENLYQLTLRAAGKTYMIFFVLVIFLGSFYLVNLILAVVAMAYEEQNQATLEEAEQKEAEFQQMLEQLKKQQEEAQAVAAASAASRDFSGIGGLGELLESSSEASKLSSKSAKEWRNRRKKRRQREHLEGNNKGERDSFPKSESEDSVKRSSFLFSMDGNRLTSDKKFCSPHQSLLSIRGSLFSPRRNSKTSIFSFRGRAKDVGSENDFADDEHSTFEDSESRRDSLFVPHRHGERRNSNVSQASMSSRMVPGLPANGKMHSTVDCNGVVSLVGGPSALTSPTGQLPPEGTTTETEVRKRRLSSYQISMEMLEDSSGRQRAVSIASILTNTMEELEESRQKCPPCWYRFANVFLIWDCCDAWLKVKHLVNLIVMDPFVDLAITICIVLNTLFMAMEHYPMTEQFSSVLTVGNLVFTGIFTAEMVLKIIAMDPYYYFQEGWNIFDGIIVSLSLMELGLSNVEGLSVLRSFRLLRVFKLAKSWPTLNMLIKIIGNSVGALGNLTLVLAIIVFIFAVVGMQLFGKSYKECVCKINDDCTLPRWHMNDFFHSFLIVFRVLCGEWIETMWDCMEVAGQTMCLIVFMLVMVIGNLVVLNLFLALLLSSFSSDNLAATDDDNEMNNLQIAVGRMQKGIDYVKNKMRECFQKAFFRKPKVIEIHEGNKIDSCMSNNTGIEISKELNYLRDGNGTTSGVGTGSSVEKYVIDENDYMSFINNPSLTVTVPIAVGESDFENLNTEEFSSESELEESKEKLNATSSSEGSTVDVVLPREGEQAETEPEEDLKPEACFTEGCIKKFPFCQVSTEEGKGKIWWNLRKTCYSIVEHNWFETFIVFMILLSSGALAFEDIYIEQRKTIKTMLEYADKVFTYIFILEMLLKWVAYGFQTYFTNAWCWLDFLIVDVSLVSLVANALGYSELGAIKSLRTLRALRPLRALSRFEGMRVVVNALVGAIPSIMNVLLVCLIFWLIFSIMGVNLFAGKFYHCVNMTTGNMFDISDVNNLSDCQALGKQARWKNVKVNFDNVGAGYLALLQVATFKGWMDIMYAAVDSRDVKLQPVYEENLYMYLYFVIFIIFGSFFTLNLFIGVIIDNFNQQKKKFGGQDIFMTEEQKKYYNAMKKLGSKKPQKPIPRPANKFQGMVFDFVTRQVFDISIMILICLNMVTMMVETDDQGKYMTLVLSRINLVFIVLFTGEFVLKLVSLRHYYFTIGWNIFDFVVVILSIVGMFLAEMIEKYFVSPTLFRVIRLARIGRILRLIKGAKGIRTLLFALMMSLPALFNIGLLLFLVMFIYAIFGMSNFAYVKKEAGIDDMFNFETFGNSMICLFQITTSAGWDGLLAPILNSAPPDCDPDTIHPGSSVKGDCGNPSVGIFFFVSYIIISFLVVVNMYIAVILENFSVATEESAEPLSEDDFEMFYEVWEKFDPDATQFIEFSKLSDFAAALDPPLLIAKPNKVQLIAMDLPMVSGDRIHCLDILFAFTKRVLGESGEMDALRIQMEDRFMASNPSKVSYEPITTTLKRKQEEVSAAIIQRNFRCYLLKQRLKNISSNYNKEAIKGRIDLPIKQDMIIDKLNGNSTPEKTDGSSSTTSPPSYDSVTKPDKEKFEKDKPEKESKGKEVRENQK", "settings": "IonWorks Quattro, read-out: IWQ Use Nav1.3"}, "[2]": {"target": "hNav1.5 (Homo sapiens, UniProt Q14524)"}, "[3]": {"target": "hNav1.7 (Homo sapiens, UniProt Q15858)", "sequence (Q15858 whole entry, looked up)": "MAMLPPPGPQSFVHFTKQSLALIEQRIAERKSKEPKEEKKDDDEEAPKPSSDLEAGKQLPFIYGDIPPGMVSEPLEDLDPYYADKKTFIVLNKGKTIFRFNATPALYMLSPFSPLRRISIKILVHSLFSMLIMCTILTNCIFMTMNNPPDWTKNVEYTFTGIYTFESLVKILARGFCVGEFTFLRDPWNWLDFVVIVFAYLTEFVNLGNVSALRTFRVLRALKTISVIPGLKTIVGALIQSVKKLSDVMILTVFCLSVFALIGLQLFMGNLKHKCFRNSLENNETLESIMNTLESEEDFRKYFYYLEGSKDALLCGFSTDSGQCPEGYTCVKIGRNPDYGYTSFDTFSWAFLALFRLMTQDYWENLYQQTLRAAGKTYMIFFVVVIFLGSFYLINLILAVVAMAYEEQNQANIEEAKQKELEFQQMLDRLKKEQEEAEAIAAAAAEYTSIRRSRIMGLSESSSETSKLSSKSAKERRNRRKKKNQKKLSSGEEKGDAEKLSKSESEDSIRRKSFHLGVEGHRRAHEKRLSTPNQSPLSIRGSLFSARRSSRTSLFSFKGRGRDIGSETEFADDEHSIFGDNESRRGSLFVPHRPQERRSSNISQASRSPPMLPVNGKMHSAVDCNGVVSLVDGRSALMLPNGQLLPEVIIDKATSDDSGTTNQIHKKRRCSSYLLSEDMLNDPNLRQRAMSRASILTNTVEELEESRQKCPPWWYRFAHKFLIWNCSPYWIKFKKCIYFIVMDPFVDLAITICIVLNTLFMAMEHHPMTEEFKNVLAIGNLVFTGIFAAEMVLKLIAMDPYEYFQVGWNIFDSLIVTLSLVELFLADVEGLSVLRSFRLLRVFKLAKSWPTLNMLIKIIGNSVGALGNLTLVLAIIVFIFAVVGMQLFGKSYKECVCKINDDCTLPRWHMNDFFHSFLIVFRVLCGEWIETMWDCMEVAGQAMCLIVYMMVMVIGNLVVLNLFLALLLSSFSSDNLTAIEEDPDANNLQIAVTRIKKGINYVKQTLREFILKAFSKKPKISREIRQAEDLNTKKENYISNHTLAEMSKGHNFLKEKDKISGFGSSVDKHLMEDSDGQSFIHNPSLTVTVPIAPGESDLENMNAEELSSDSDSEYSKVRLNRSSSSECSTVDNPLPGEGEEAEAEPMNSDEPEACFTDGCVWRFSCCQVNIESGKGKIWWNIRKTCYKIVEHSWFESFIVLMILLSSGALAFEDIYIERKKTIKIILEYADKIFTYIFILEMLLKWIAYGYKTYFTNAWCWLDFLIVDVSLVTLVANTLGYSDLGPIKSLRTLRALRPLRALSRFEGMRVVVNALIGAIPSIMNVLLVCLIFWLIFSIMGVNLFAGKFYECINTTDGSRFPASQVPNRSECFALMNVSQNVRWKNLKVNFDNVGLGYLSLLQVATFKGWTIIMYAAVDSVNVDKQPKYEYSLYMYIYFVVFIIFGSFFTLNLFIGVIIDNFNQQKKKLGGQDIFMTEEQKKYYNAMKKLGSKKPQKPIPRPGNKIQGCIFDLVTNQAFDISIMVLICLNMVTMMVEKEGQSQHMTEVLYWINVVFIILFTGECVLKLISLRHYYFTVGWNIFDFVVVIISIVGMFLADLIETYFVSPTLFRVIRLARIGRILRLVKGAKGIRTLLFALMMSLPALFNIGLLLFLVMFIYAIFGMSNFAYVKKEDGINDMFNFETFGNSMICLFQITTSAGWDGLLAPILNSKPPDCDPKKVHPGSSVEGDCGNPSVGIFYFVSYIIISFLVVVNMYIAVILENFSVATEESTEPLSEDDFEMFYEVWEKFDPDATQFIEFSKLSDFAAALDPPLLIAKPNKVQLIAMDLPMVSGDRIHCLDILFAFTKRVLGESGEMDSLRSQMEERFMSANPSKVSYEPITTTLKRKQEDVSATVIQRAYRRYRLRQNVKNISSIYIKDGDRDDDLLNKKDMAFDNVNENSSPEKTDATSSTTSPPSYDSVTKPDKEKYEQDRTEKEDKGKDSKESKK", "format": "cell-based"}, "[4]": {"settings": "IonWorks Quattro, use-dependent block, hNav1.5, read-out: IWQ Use Nav1.5"}, "[5]": {"settings": "IonWorks Quattro, use-dependent block, hNav1.7, read-out: IWQ Use Nav1.7"}}, "note": "Read-outs that look alike come from different tables or passages of the source. Positions of bridges follow the written chain, without caps; N, C: chain ends. Residues, ends and D or L forms follow the SMILES beside them."}
{"smiles": "CC[C@H](C)[C@@H]1NC(=O)[C@@H]2CSSC[C@@H]3NC(=O)[C@H](C(C)C)NC(=O)[C@H](CC(C)C)NC(=O)[C@H](CC(N)=O)NC(=O)[C@@H]4CCCN4C(=O)[C@H](CCCNC(=N)N)NC(=O)[C@H](CSSC[C@H](NC(=O)[C@@H](N)CC(=O)O)C(=O)N[C@@H](CC(C)C)C(=O)NCC(=O)N[C@@H](Cc4ccccc4)C(=O)N[C@@H](CCSC)C(=O)N[C@@H](CCCNC(=N)N)C(=O)N[C@@H](CCCCN)C(=O)N2)NC(=O)[C@H](CSSC[C@@H](C(=O)N[C@@H](CCCCN)C(=O)N[C@@H](Cc2c[nH]c4ccccc24)C(=O)N[C@@H](Cc2c[nH]c4ccccc24)C(=O)N[C@@H](Cc2ccccc2)C(N)=O)NC(=O)[C@H](Cc2c[nH]c4ccccc24)NC(=O)[C@H](CCCCN)NC(=O)[C@H](Cc2c[nH]cn2)NC(=O)[C@H]([C@@H](C)O)NC(=O)[C@H](CCCNC(=N)N)NC(=O)[C@H](CO)NC3=O)NC(=O)[C@H](CCCCN)NC(=O)[C@H](CC(=O)O)NC(=O)[C@H](CC(N)=O)NC(=O)[C@H](CC(=O)O)NC(=O)[C@@H]2CCCN2C1=O", "note": "[compound 450] (H-DCLGFMRKCIPDNDKCCRPNLVCSRTHKWCKWWF-NH2; disulfide 2-17, 9-23, 16-30)", "values": [{"measurement": "IC50", "setting": "[1]; use-dependent block, hNav1.3", "value": 30, "unit": "nM"}, {"measurement": "IC50", "setting": "[2]; [4]", "value": 11.5, "unit": "µM"}, {"measurement": "IC50", "setting": "[3]; [5]", "value": 50, "unit": "nM"}]}
{"smiles": "CC[C@H](C)[C@@H]1NC(=O)[C@@H]2CSSC[C@@H]3NC(=O)[C@H](C(C)C)NC(=O)[C@H](CC(C)C)NC(=O)[C@H](CC(N)=O)NC(=O)[C@@H]4CCCN4C(=O)[C@H](CCCNC(=N)N)NC(=O)[C@H](CSSC[C@H](NC(=O)[C@@H](N)CC(=O)O)C(=O)N[C@@H](CC(C)C)C(=O)NCC(=O)N[C@@H](Cc4ccccc4)C(=O)N[C@@H](CCSC)C(=O)N[C@@H](CCCNC(=N)N)C(=O)N[C@@H](CCCCN)C(=O)N2)NC(=O)[C@H](CSSC[C@@H](C(=O)N[C@@H](CCCCN)C(=O)N[C@@H](Cc2ccc(O)cc2)C(=O)N[C@H](C(=O)N[C@@H](Cc2ccccc2)C(N)=O)C(C)C)NC(=O)[C@H](Cc2c[nH]c4ccccc24)NC(=O)[C@H](CCCCN)NC(=O)[C@H](CCCCN)NC(=O)[C@H]([C@@H](C)O)NC(=O)[C@H](CCCNC(=N)N)NC(=O)[C@H](CO)NC3=O)NC(=O)[C@H](CCCCN)NC(=O)[C@H](CC(=O)O)NC(=O)[C@H](CC(N)=O)NC(=O)[C@H](CC(=O)O)NC(=O)[C@@H]2CCCN2C1=O", "note": "[compound 55] (H-DCLGFMRKCIPDNDKCCRPNLVCSRTKKWCKYVF-NH2; disulfide 2-17, 9-23, 16-30)", "values": [{"measurement": "IC50", "setting": "[1]; Table 23, use, […]", "value": 2480, "unit": "nM"}, {"measurement": "IC50", "setting": "[2]; Table 23, IonWorks Quattro, use, […], read-out: IWQ Use Nav1.5", "value": 11.5, "unit": "µM"}, {"measurement": "IC50", "setting": "[3]; Table 23, IonWorks Quattro, use, […], read-out: IWQ Use Nav1.7", "value": 1510, "unit": "nM"}]}
{"smiles": "CC[C@H](C)[C@H](N)C(=O)N[C@H]1CSSC[C@@H]2NC(=O)[C@@H]3CSSC[C@@H](C(=O)N[C@@H](CCCCN)C(=O)N[C@@H](Cc4ccc(O)cc4)C(=O)N[C@H](C(=O)N[C@@H](Cc4ccccc4)C(N)=O)C(C)C)NC(=O)[C@H](Cc4c[nH]c5ccccc45)NC(=O)[C@H](CCCCN)NC(=O)[C@H](Cc4c[nH]cn4)NC(=O)[C@H]([C@@H](C)O)NC(=O)[C@H](CCCNC(=N)N)NC(=O)[C@H](CO)NC(=O)[C@H](CSSC[C@H](NC(=O)[C@H](CCCCN)NC(=O)[C@H](CCCNC(=N)N)NC(=O)[C@H](CCSC)NC(=O)[C@H](Cc4ccccc4)NC(=O)CNC(=O)[C@H](CC(C)C)NC1=O)C(=O)N[C@@H]([C@@H](C)CC)C(=O)N1CCC[C@H]1C(=O)N[C@@H](CC(=O)O)C(=O)N[C@@H](CC(N)=O)C(=O)N[C@@H](CC(=O)O)C(=O)N[C@@H](CCCCN)C(=O)N3)NC(=O)[C@H](C(C)C)NC(=O)[C@H](CC(C)C)NC(=O)[C@H](CC(N)=O)NC(=O)[C@@H]1CCCN1C(=O)[C@H](CCCNC(=N)N)NC2=O", "note": "[SEQ ID NO: 189] (H-ICLGFMRKCIPDNDKCCRPNLVCSRTHKWCKYVF-NH2; disulfide 2-17, 9-23, 16-30)", "values": [{"measurement": "IC50", "setting": "[1]; clamped to −110 mV, depolarized to −10 mV, 5 min after compound, n=2", "value": 70, "unit": "nM"}, {"measurement": "IC50", "setting": "[2]; IonWorks Quattro, clamped to −110 mV, depolarized to −10 mV, 5 min after compound, n=2, read-out: IWQ Use Nav1.5", "value": 8.15, "unit": "µM"}, {"measurement": "IC50", "setting": "[3]; IonWorks Quattro, clamped to −110 mV, depolarized to −10 mV, 5 min after compound, n=2, read-out: IWQ Use Nav1.7", "value": 100, "unit": "nM"}]}
{"smiles": "CC[C@H](C)[C@@H]1NC(=O)[C@@H]2CSSC[C@@H]3NC(=O)[C@H](C(C)C)NC(=O)[C@H](Cc4c[nH]c5ccccc45)NC(=O)[C@H](CC(N)=O)NC(=O)[C@@H]4CCCN4C(=O)[C@H](CCCNC(=N)N)NC(=O)[C@H](CSSC[C@H](NC(=O)[C@@H](N)CC(=O)O)C(=O)N[C@@H](CC(C)C)C(=O)NCC(=O)N[C@@H](Cc4ccccc4)C(=O)N[C@@H](CCSC)C(=O)N[C@@H](CCCNC(=N)N)C(=O)N[C@@H](CCCCN)C(=O)N2)NC(=O)[C@H](CSSC[C@@H](C(=O)N[C@@H](CCCCN)C(=O)N[C@@H](Cc2ccc(O)cc2)C(=O)N[C@H](C(=O)N[C@@H](Cc2ccccc2)C(N)=O)C(C)C)NC(=O)[C@H](Cc2c[nH]c4ccccc24)NC(=O)[C@H](CCCCN)NC(=O)[C@H](Cc2cnc[nH]2)NC(=O)[C@H]([C@@H](C)O)NC(=O)[C@H](CCCNC(=N)N)NC(=O)[C@H](CO)NC3=O)NC(=O)[C@H](CCCCN)NC(=O)[C@H](CC(=O)O)NC(=O)[C@H](CC(N)=O)NC(=O)[C@H](CC(=O)O)NC(=O)[C@@H]2CCCN2C1=O", "note": "[compound 176] (H-DCLGFMRKCIPDNDKCCRPNWVCSRTHKWCKYVF-NH2; disulfide 2-17, 9-23, 16-30)", "values": [{"measurement": "IC50", "setting": "[1]; Use", "value": 50, "unit": "nM"}, {"measurement": "IC50", "setting": "[2]; IWQ Use Nav1.5 (μM)", "value": 13.8, "unit": "µM"}, {"measurement": "IC50", "setting": "[3]", "value": 100, "unit": "nM"}]}
{"smiles": "CC[C@H](C)[C@@H]1NC(=O)[C@@H]2CSSC[C@@H]3NC(=O)[C@H](C(C)C)NC(=O)[C@H](CC(C)C)NC(=O)[C@H](CC(N)=O)NC(=O)[C@@H]4CCCN4C(=O)[C@H](CCCNC(=N)N)NC(=O)[C@H](CSSC[C@H](NC(=O)[C@@H](N)CC(=O)O)C(=O)N[C@@H](CC(C)C)C(=O)NCC(=O)N[C@@H](Cc4ccccc4)C(=O)N[C@@H](CCSC)C(=O)N[C@@H](CCCNC(=N)N)C(=O)N[C@@H](CCCCN)C(=O)N2)NC(=O)[C@H](CSSC[C@@H](C(=O)N[C@@H](CCCCN)C(=O)N[C@@H](Cc2ccc(O)cc2)C(=O)N[C@@H](Cc2c[nH]cn2)C(=O)N[C@@H](Cc2ccccc2)C(N)=O)NC(=O)[C@H](Cc2c[nH]c4ccccc24)NC(=O)[C@H](CCCCN)NC(=O)[C@H](Cc2c[nH]cn2)NC(=O)[C@H]([C@@H](C)O)NC(=O)[C@H](CCCNC(=N)N)NC(=O)[C@H](CO)NC3=O)NC(=O)[C@H](CCCCN)NC(=O)[C@H](CC(=O)O)NC(=O)[C@H](CC(N)=O)NC(=O)[C@H](CC(=O)O)NC(=O)[C@@H]2CCCN2C1=O", "note": "[compound 392] (H-DCLGFMRKCIPDNDKCCRPNLVCSRTHKWCKYHF-NH2; disulfide 2-17, 9-23, 16-30)", "values": [{"measurement": "IC50", "setting": "[1]; Table 26, use, […]", "value": 10, "unit": "nM"}, {"measurement": "IC50", "setting": "[2]; Table 26, IonWorks Quattro, use, […], read-out: IWQ Use Nav1.5", "value": 8.16, "unit": "µM"}, {"measurement": "IC50", "setting": "[3]; Table 26, IonWorks Quattro, use, […], read-out: IWQ Use Nav1.7", "value": 20, "unit": "nM"}]}
{"smiles": "CC[C@H](C)[C@@H]1NC(=O)[C@@H]2CSSC[C@@H]3NC(=O)[C@H](C(C)C)NC(=O)[C@H](CC(C)C)NC(=O)[C@H](CC(N)=O)NC(=O)[C@@H]4CCCN4C(=O)[C@H](CCCNC(=N)N)NC(=O)[C@H](CSSC[C@H](NC(=O)[C@@H](N)CC(=O)O)C(=O)N[C@@H](CC(C)C)C(=O)NCC(=O)N[C@@H](C)C(=O)N[C@@H](Cc4ccccc4)C(=O)N[C@@H](CCCNC(=N)N)C(=O)N[C@@H](CCCCN)C(=O)N2)NC(=O)[C@H](CSSC[C@@H](C(=O)N[C@@H](CCCCN)C(=O)N[C@@H](Cc2ccc(O)cc2)C(=O)N[C@H](C(=O)N[C@@H](Cc2ccccc2)C(=O)O)C(C)C)NC(=O)[C@H](Cc2c[nH]c4ccccc24)NC(=O)[C@H](CCCNC(=N)N)NC(=O)[C@H](Cc2c[nH]cn2)NC(=O)[C@H]([C@@H](C)O)NC(=O)[C@H](CCCNC(=N)N)NC(=O)[C@H](CO)NC3=O)NC(=O)[C@H](CCCCN)NC(=O)[C@H](CC(=O)O)NC(=O)[C@H](CCC(=O)O)NC(=O)[C@H](CC(=O)O)NC(=O)[C@@H]2CCCN2C1=O", "note": "[compound 838]", "values": [{"measurement": "IC50", "setting": "[1]; use-dependent block, hNav1.3", "value": 1900, "unit": "nM"}, {"measurement": "IC50", "setting": "[2]; [4]", "value": "> 5", "unit": "µM"}, {"measurement": "IC50", "setting": "[3]; [5]", "value": "> 5000", "unit": "nM"}]}
{"smiles": "CC[C@H](C)[C@@H]1NC(=O)[C@@H]2CSSC[C@@H]3NC(=O)[C@H](C(C)C)NC(=O)[C@H](CC(C)C)NC(=O)[C@H](CC(N)=O)NC(=O)[C@@H]4CCCN4C(=O)[C@H](CCCNC(=N)N)NC(=O)[C@H](CSSC[C@H](NC(=O)[C@@H](N)CC(=O)O)C(=O)N[C@@H](CC(C)C)C(=O)NCC(=O)N[C@@H](C)C(=O)N[C@@H](Cc4ccccc4)C(=O)N[C@@H](CCCNC(=N)N)C(=O)N[C@@H](CCCCN)C(=O)N2)NC(=O)[C@H](CSSC[C@@H](C(=O)N[C@@H](CCCCN)C(=O)N[C@@H](Cc2ccc(O)cc2)C(=O)N[C@H](C(=O)N[C@@H](Cc2ccccc2)C(=O)O)C(C)C)NC(=O)[C@H](Cc2c[nH]c4ccccc24)NC(=O)[C@H](C)NC(=O)[C@H](Cc2c[nH]cn2)NC(=O)[C@H]([C@@H](C)O)NC(=O)[C@H](CCCNC(=N)N)NC(=O)[C@H](CO)NC3=O)NC(=O)[C@H](CCCCN)NC(=O)[C@H](CC(=O)O)NC(=O)[C@H](CC(N)=O)NC(=O)[C@H](CC(=O)O)NC(=O)[C@@H]2CCCN2C1=O", "note": "[compound 824] (H-DCLGAFRKCIPDNDKCCRPNLVCSRTHAWCKYVF-OH; disulfide 2-17, 9-23, 16-30)", "values": [{"measurement": "IC50", "setting": "[1]; use-dependent block, hNav1.3", "value": "> 5000", "unit": "nM"}, {"measurement": "IC50", "setting": "[2]; [4]", "value": "> 5", "unit": "µM"}, {"measurement": "IC50", "setting": "[3]; [5]", "value": "> 5000", "unit": "nM"}]}
